Read-outs that look alike come from different tables or passages of the source.
Assays:
[1] = rcm bond, 15-membered ring, Hoveyda-Grubbs II, DCE, 80.0 °C
[2] = system: HCV genotype 1b (Con1) replicon in HUH-7 cells; experiment: HCV replicon luciferase reporter assay, genotype 1b; assay type: cell-based; conditions: Hepatitis C virus, 72 h, genotype 1b replicon, 3 days incubation
Procedure, shortened: (§1)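 Twenty-point, threefold compound titrations (0.5% DMSO) were incubated 3 days at 37 °C with 3.0×10^3 HUH-7 cells/well in 4% FCS. The cells stably carried luciferase replicons: genotype 1b Con1 (S1179I) or 1a H77 (NS3 P1496L, NS5A S2204I). Renilla signal was read after 2 h with 7.5 μM EnduRen, and EC50 was taken from a four-parameter logistic fit. Cytotoxicity (CC50) was measured by Cell Titer-Blue, 8 h.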

[3] = system: HCV genotype 1a (H77 strain) replicon in HUH-7 cells; experiment: HCV replicon luciferase reporter assay, genotype 1a; assay type: cell-based; conditions: Hepatitis C virus, 72 h, genotype 1a replicon, 3 days incubation
Procedure, shortened: as §1

| Structure (SMILES) | EC50 ([2]; read-out: LE_1b (EC50, range)) [nM] | EC50 ([3]; read-out: LE_1a (EC50, range)) [nM] | other results |
| --- | --- | --- | --- |
| COC[C@@H]1CC(C)CC/C=C\[C@@H]2C[C@@]2(C(=O)NS(=O)(=O)C2(C)CC2)NC(=O)[C@@H]2C[C@@H](O)CN2C(=O)[C@H]1NC(=O)OC(C)(C)C (stereo partly drawn) | – | – | ring closure, isolated yield ([1]; from C=CCCC(C)C[C@@H](COC)[C@H](NC(=O)OC(C)(C)C)C(=O)N1C[C@H](O)C[C@H]1C(=O)N[C@]1(C(=O)NS(=O)(=O)C2(C)CC2)C[C@H]1C=C, 7.5 mM): 76% |
| COC[C@@H]1CC(C)CC/C=C\[C@@H]2C[C@@]2(C(=O)NS(=O)(=O)C2(CF)CC2)NC(=O)[C@@H]2C[C@@H](O)CN2C(=O)[C@H]1NC(=O)OC(C)(C)C (stereo partly drawn) | – | – | ring closure, isolated yield ([1]; from tert-butyl (2S,3R)-1-(((2S,4R)-2-(((1R,2S)-1-(((1-(fluoromethyl)cyclopropyl)sulfonyl)carbamoyl)-2-vinylcyclopropyl)carbamoyl)-4-hydroxypyrrolidin-1-yl)-3-(methoxymethyl)-5-methyl-1-oxonon-8-en-2-yl)carbamate, 5.0 mM): 45% |
| COC[C@@H]1CC(C)CC/C=C\[C@@H]2C[C@@]2(C(=O)NS(=O)(=O)C2CC2)NC(=O)[C@@H]2C[C@@H](O)CN2C(=O)[C@H]1NC(=O)OC(C)(C)C (stereo partly drawn) | – | – | ring closure, isolated yield ([1]; from C=CCCC(C)C[C@@H](COC)[C@H](NC(=O)OC(C)(C)C)C(=O)N1C[C@H](O)C[C@H]1C(=O)N[C@]1(C(=O)NS(=O)(=O)C2CC2)C[C@H]1C=C, 9.2 mM, 4.0 h): 71% |
| COC[C@@H]1CCCC/C=C\[C@@H]2C[C@@]2(C(=O)NS(=O)(=O)C2(C)CC2)NC(=O)[C@@H]2C[C@@H](O)CN2C(=O)[C@H]1NC(=O)OC(C)(C)C | – | – | ring closure, isolated yield ([1]; from C=CCCCC[C@@H](COC)[C@H](NC(=O)OC(C)(C)C)C(=O)N1C[C@H](O)C[C@H]1C(=O)N[C@]1(C(=O)NS(=O)(=O)C2(C)CC2)C[C@H]1C=C, 24.4 mM, 2.0 h): 55% |
| COC[C@@H]1CCCC/C=C\[C@@H]2C[C@@]2(C(=O)NS(=O)(=O)C2CC2)NC(=O)[C@@H]2C[C@@H](O)CN2C(=O)[C@H]1NC(=O)OC(C)(C)C | – | – | ring closure, isolated yield ([1]; from C=CCCCC[C@@H](COC)[C@H](NC(=O)OC(C)(C)C)C(=O)N1C[C@H](O)C[C@H]1C(=O)N[C@]1(C(=O)NS(=O)(=O)C2CC2)C[C@H]1C=C, 10.8 mM, 2.0 h): 52% |
| COC[C@@H]1C[C@H](C)CC/C=C\[C@@H]2C[C@@]2(C(=O)NS(=O)(=O)C2(CF)CC2)NC(=O)[C@@H]2C[C@@H](Oc3nc4cc(OC)ccc4nc3C(F)(F)F)CN2C(=O)[C@H]1NC(=O)OC(C)(C)C(F)(F)F [Compound 1037, 1,1,1-trifluoro-2-methylpropan-2-yl ((2R,6S,7R,9R,13aS,14aR,16aS,Z)-14a-(((1-(fluoromethyl)cyclopropyl)sulfonyl)carbamoyl)-2-((7-methoxy-3-(trifluoromethyl)quinoxalin-2-yl)oxy)-7-(methoxymethyl)-9-methyl-5,16-dioxo-1,2,3,5,6,7,8,9,10,11,13a,14,14a,15,16,16a-hexadecahydrocyclopropa[e]pyrrolo[1,2-a][1,4]diazacyclopentadecin-6-yl)carbamate] | 1.01 to 5 | 1.01 to 5 | – |
| COC[C@@H]1C[C@@H](C)CC/C=C\[C@@H]2C[C@@]2(C(=O)NS(=O)(=O)C2(CF)CC2)NC(=O)[C@@H]2C[C@@H](Oc3nc4cc(OC)ccc4nc3C(F)(F)F)CN2C(=O)[C@H]1NC(=O)OC(C)(C)C(F)(F)F [Compound 1038, 1,1,1-trifluoro-2-methylpropan-2-yl ((2R,6S,7R,9S,13aS,14aR,16aS,Z)-14a-(((1-(fluoromethyl)cyclopropyl)sulfonyl)carbamoyl)-2-((7-methoxy-3-(trifluoromethyl)quinoxalin-2-yl)oxy)-7-(methoxymethyl)-9-methyl-5,16-dioxo-1,2,3,5,6,7,8,9,10,11,13a,14,14a,15,16,16a-hexadecahydrocyclopropa[e]pyrrolo[1,2-a][1,4]diazacyclopentadecin-6-yl)carbamate] | 5.01 to 35 | 35 to 620 | EC50 ([2]; read-out: LE_1b (EC50)): 14.7 nM; EC50 ([3]; read-out: LE_1a (EC50)): 35 nM |
| COC[C@@H]1C[C@H](C)CC/C=C\[C@@H]2C[C@@]2(C(=O)NS(=O)(=O)C2(CF)CC2)NC(=O)[C@@H]2C[C@@H](Oc3nc4cc(OC)ccc4nc3C(C)C)CN2C(=O)[C@H]1NC(=O)OC(C)(C)C(F)(F)F [Compound 1039] | 1.01 to 5 | 5.01 to 35 | – |
| COC[C@@H]1C[C@@H](C)CC/C=C\[C@@H]2C[C@@]2(C(=O)NS(=O)(=O)C2(CF)CC2)NC(=O)[C@@H]2C[C@@H](Oc3nc4cc(OC)ccc4nc3C(C)C)CN2C(=O)[C@H]1NC(=O)OC(C)(C)C(F)(F)F [Compound 1040, 1,1,1-trifluoro-2-methylpropan-2-yl ((2R,6S,7R,9S,13aS,14aR,16aS,Z)-14a-(((1-(fluoromethyl)cyclopropyl)sulfonyl)carbamoyl)-2-((3-isopropyl-7-methoxyquinoxalin-2-yl)oxy)-7-(methoxymethyl)-9-methyl-5,16-dioxo-1,2,3,5,6,7,8,9,10,11,13a,14,14a,15,16,16a-hexadecahydrocyclopropa[e]pyrrolo[1,2-a][1,4]diazacyclopentadecin-6-yl)carbamate] | 35 to 620 | 35 to 620 | – |
| COC[C@@H]1C[C@H](C)CC/C=C\[C@@H]2C[C@@]2(C(=O)NS(=O)(=O)C2CC2)NC(=O)[C@@H]2C[C@@H](Oc3nc4cc(OC)ccc4nc3C(F)(F)F)CN2C(=O)[C@H]1NC(=O)OC(C)(C)C(F)(F)F [Compound 1041, 1,1,1-trifluoro-2-methylpropan-2-yl ((2R,6S,7R,9R,13aS,14aR,16aS,Z)-14a-((cyclopropylsulfonyl)carbamoyl)-2-((7-methoxy-3-(trifluoromethyl)quinoxalin-2-yl)oxy)-7-(methoxymethyl)-9-methyl-5,16-dioxo-1,2,3,5,6,7,8,9,10,11,13a,14,14a,15,16,16a-hexadecahydrocyclopropa[e]pyrrolo[1,2-a][1,4]diazacyclopentadecin-6-yl)carbamate] | 0.51 to 1 | 0.51 to 1 | EC50 ([2]; read-out: LE_1b (EC50)): 0.75 nM; EC50 ([3]; read-out: LE_1a (EC50)): 0.61 nM |
| COC[C@@H]1C[C@@H](C)CC/C=C\[C@@H]2C[C@@]2(C(=O)NS(=O)(=O)C2CC2)NC(=O)[C@@H]2C[C@@H](Oc3nc4cc(OC)ccc4nc3C(F)(F)F)CN2C(=O)[C@H]1NC(=O)OC(C)(C)C(F)(F)F [Compound 1042, 1,1,1-trifluoro-2-methylpropan-2-yl ((2R,6S,7R,9S,13aS,14aR,16aS,Z)-14a-((cyclopropylsulfonyl)carbamoyl)-2-((7-methoxy-3-(trifluoromethyl)quinoxalin-2-yl)oxy)-7-(methoxymethyl)-9-methyl-5,16-dioxo-1,2,3,5,6,7,8,9,10,11,13a,14,14a,15,16,16a-hexadecahydrocyclopropa[e]pyrrolo[1,2-a][1,4]diazacyclopentadecin-6-yl)carbamate] | 1.01 to 5 | 5.01 to 35 | – |
